Laboratory results published in US8389468B2, “Approach to the treatment of compartment syndrome” (Lantmannen AS-Faktor AB, priority 2006, dated 2013).
Entries after “also recorded” stand apart in the source; their conditions may differ.

Experiments:
Assay type in all cases: in vivo, rat
[1] = test system: HSV-1; assay: Immunohistochemical visualization of HSV-1 proteins in brain, rats; settings: 1 or 10 pg intranasally twice daily, day 6
Experimental: An alternative explanation to the improved survival of HSV-1 infected animals could be that the treatment with AF-16 prevented the virus from multiplying and/or spreading in the brain. […] Adult rats were infected by having a solution of the herpes simplex virus type 1 (HSV-1; strain 2762, batch 041028; 1.7×10^7 PFU/mL) instilled in their right nostril. Half of the animals received 10 min later 25 pi_ (1 or 10 pg) of AF-16 in their right nostril, and had thereafter the same dose of AF-16 instilled every morning at 8 AM and every night at 6 PM until the experiment was terminated on day 6. The other groups of the HSV-1 infected rats received at the same time intervals 25 pL of the vehicle, PBS. The animals were closely watched for signs of general sickness and of behavioral and motor dysfunction. The animals were sacrificed by an overdose of anesthetics on day 6, the skull opened and the brain removed. The brains, including the olfactory bulbs, were fixed by immersion in buffered formalin for at least a day. The brains were the dissected and divided in several specimens, which were processed for light microscopic investigation after paraffin embedding and sectioning. The sections were processed for routine staining and for immunohistochemical visualization of HSV-1 proteins (FIG. 4). […] Note the distinct staining of the nerve cells (black in FIG. 4a-c).

[2] = test system: HSV-1 infected rats; assay: Intracranial pressure (ICP) and neurological symptoms in HSV-1 infected rats, fibre optic pressure sensor
Experimental: Adult rats were infected by having a solution of the Herpes Simplex virus type 1 (HSV-1; strain 2762, batch 041028; 1.7×10^7 PFU/mL; 25 pL) instilled in their right nostril. One group of animals (n=6) received 10 min after the infection 25 pL (10 pg) of AF-16 in their right nostril, and had thereafter the same dose of AF-16 instilled twice daily, every morning at 8 AM and every night at 6 PM, until the experiment was terminated on day 6. Additional HSV-1 infected rats (n=6) received in the nose at the same time intervals 25 pL of the vehicle, phosphate buffered saline (PBS). On day 6, the animals were anaesthetized, a surgical incision made through the skin on the head, and the skull bone freed from periostium and connective tissue. A hole with a diameter of about 1 mm was drilled through the right parietal bone and a miniature pressure sensor inserted 3-5 mm into the brain or into the lateral ventricle. A fibre optic pressure measure system (Samba System 3200 & Samba Preclin 420 sensor; Samba Sensors AB, V Frolunda, Sweden) with a very small diameter, ve. 0.4 mm, was used. […] HSV-1 infected rats treated with just the vehicle were measured to have as high pressures as up to 30-45 mm Hg (FIG. 2a), considerably affect the animals as reflected by symptoms of neurological dysfunction of increasing severity. In contrast, HSV-1 infected rats treated from the time of infection with AF-16 twice daily had almost normal ICP, 8-14 mm Hg (FIG. 2 b).
(§1) Additional HSV-1 infected animals with distinctly overt symptoms were as well treated with 10 or 25 pg AF-16 intranasally, starting on day 5, 6 or 7, i.e. after having had the vehicle during the previous days. […] Thus, non of the acutely AF-16 treated rats had any persistent signs of deleterious ICP and thus no CS developed. […] That is seen in the mentioned figure (FIG. 5 a) as there is no red staining of the right half on the figure. However, treatment with 10 or 25 pg AF-16 intranasally turned the picture in HSV-1 infected rats as in the normal, non-infected ones. […] Thereby the outflow of CSF was restored and the ICP turned normal.

[3] = test system: HSV-1 infected rats; assay: Outflow of CSF through cribriform lamina, Evans blue-albumin (EBA) infusion in HSV-1 infected rats; settings: 10 or 25 pg intranasally
Source text: FIG. 6: Sections through the cribriform lamina, a bone structure separating the brain from the nose and through which the olfactory nerve pass. In the left figure (a) the dye-protein complex Evans blue-albumin (EBA) was infused into the subarachnoid space at day 5 after HSV-1 infection. The animal suffered from moderate encephalitis. Note that there is no red EBA in the cribriform lamina, nor in the nose, as the passage between the brain and nasal cavity is blocked. In the right figure (b) EBA was infused into the subarachnoid space of a non-infected, normal rat.
as §1

[4] = test system: HSV-1 infected rats; assay: Survival of rats infected with HSV-1; settings: 10 pg or 25 pg AF-16 intranasally twice daily
Experimental: FIG. 3: Survival frequency of rats infected with HSV-1 by the administration of a virus solution in the right nostril on day 0. Half of the rats (n=15) were treated twice daily with 1 μg AF-16 (upper line), a peptide composed of the amino acids VCHSKTRSNPENNVGL (SEQ ID NO: 1), twice daily intranasally, while the other half received just the vehicle after the HSV-1 infection (lower line). Of those treated with just the vehicle only 10% survived day 14, contrasting to the 60% of those treated with AF-16.
Therefore, rats were infected by instillation in their right nostril of 25 μL of a solution of the herpes simplex virus type 1 (HSV-1; strain 2762, batch 041028; 1.7×10^7 PFU/mL). Half of the animals received 10 min later 25 μL (1, 10 or 25 pg) of AF-16 in their right nostril, and had thereafter the same dose of AF-16 instilled every morning at 8 AM and every night at 6 PM until the experiment was terminated on day 14. The other half of the group of HSV-1 infected rats received 25 μL of the vehicle, PBS, at the same time schedule. The animals were several times daily closely watched for signs of behavioral dysfunction or general sickness. If so, the animals were sacrificed. The FIG. 3 is illustrating the survival rates for the animals, all being infected with HSV-1. […]

[5] = overt symptoms, 10 or 25 pg intranasally starting on day 5, 6 or 7

VCHSKTRSNPENNVGL [AF-16]
prevalence and distribution of HSV-1 proteins in the brain vs vehicle [1]: no obvious difference with regard to the prevalence and distribution of HSV-1 proteins; also recorded: no difference in frequency or distribution of HSV-1 positive brain cells | intracranial pressure (ICP) ([2]; HSV-1 infected rats, 10 pg AF-16 intranasally twice daily from time of infection, day 6, normal rats 4-8, vehicle 30-45): 8-14 mm Hg | development of neurological dysfunctions ([2]; intranasal treatment twice daily from infection): prevented the development of neurological dysfunctions | onset and duration of pressure reducing effect [2, 5]: detectable within an hour and lasted for several hours | symptoms of neurological dysfunctions after acute treatment [2, 5]: turned reduced within half an hour and were not demonstrable any longer after one hour | outflow of CSF to nasal mucosa (EBA staining of cribriform lamina) [3]: opened the passage for the CSF through the cribriform plate; also recorded: reversed the block of the outflow of CSF | signs of neurological dysfunction [4]: none showed any signs of neurological dysfunction | survival at day 14 [4]: all the infected animals survived
